Reference: patent US8314140B2, “4-hydroxythiobenzamide derivatives of drugs” (Antibe Therapeutics Inc., priority 2006, dated 2012)

Biological target: T1, COX-1 (Rattus norvegicus, UniProt Q63921)
T1 construct: whole blood thromboxane synthesis, which occurs via COX-1; from tissue; host or cells: rat whole blood, ex vivo after oral dosing
T1 sequence (Q63921 27-602): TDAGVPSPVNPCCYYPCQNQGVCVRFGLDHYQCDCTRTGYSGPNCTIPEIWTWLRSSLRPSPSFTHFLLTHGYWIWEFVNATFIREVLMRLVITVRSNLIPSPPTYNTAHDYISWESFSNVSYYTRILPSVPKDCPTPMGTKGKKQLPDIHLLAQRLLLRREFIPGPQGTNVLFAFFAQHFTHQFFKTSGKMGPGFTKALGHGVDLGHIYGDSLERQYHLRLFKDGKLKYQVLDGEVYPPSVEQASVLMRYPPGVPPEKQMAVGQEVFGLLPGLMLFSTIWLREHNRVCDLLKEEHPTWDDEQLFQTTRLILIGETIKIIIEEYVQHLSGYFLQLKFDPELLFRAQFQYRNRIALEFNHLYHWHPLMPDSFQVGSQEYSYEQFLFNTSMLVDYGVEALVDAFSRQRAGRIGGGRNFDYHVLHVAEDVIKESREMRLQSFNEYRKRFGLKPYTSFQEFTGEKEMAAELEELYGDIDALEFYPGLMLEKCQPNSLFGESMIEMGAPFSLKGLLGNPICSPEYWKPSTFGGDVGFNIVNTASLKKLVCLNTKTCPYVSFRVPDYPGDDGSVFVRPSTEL
Assay: Whole blood thromboxane B2 synthesis in treated rats
Type: in vivo
Conditions: same rats as FIG. 12/13
Method: Inhibition of COX-1 was also measured using the same rats. […] The samples were then centrifuged for 3 min at 9,000 g and the supernatant was frozen at −80° C. for subsequent measurement of thromboxane B2 concentrations using a specific ELISA.
Inhibition of COX-1 was also measured using the same rats, using the same method as described for FIG. 11.

With `NC(=S)c1ccc(O)cc1` [4-hydroxythiobenzamide] the “COX-1 activity (whole blood thromboxane synthesis)” value was “did not significantly affect COX-1 activity”.
